Assay results as given in the supplement of paper PMC13380429.

Legend:
Settings in all cases: 72 h
HepG2 [1] = assay: drug sensitivity score (DSS) for viability; higher = more toxic; extreme values may be limits of the assay
Vero E6 [2] = assay: as above
Calu-3 [3] = assay: as above
U2OS [4] = assay: as above
Caco-2 [5] = assay: as above
HepG2 [6] = assay: relative viability EC50 (midpoint between 100% and the lowest measured viability); higher = less toxic
Vero E6 [7] = assay: as above
Calu-3 [8] = assay: as above
U2OS [9] = assay: as above
Caco-2 [10] = assay: as above
HepG2 [11] = assay: cell viability relative to DMSO; higher = less toxic
Vero E6 [12] = assay: as above
Calu-3 [13] = assay: as above
U2OS [14] = assay: as above
Caco-2 [15] = assay: as above

| SMILES | drug sensitivity score (HepG2 [1]) | drug sensitivity score (Vero E6 [2]) | drug sensitivity score (Calu-3 [3]) | drug sensitivity score (U2OS [4]) | drug sensitivity score (Caco-2 [5]) | relative viability EC50 (HepG2 [6]) [µM] | relative viability EC50 (Vero E6 [7]) [µM] | relative viability EC50 (Calu-3 [8]) [µM] | relative viability EC50 (U2OS [9]) [µM] | relative viability EC50 (Caco-2 [10]) [µM] | cell viability (HepG2 [11]; 1 nM) [%] | cell viability (HepG2 [11]; 10 nM) [%] | cell viability (HepG2 [11]; 100 nM) [%] | cell viability (HepG2 [11]; 1000 nM) [%] | cell viability (HepG2 [11]; 10000 nM) [%] | cell viability (Vero E6 [12]; 1 nM) [%] | cell viability (Vero E6 [12]; 10 nM) [%] | cell viability (Vero E6 [12]; 100 nM) [%] | cell viability (Vero E6 [12]; 1000 nM) [%] | cell viability (Vero E6 [12]; 10000 nM) [%] | cell viability (Calu-3 [13]; 1 nM) [%] | cell viability (Calu-3 [13]; 10 nM) [%] | cell viability (Calu-3 [13]; 100 nM) [%] | cell viability (Calu-3 [13]; 1000 nM) [%] | cell viability (Calu-3 [13]; 10000 nM) [%] | cell viability (U2OS [14]; 1 nM) [%] | cell viability (U2OS [14]; 10 nM) [%] | cell viability (U2OS [14]; 100 nM) [%] | cell viability (U2OS [14]; 1000 nM) [%] | cell viability (U2OS [14]; 10000 nM) [%] | cell viability (Caco-2 [15]; 1 nM) [%] | cell viability (Caco-2 [15]; 10 nM) [%] | cell viability (Caco-2 [15]; 100 nM) [%] | cell viability (Caco-2 [15]; 1000 nM) [%] | cell viability (Caco-2 [15]; 10000 nM) [%] |
| --- | --- | --- | --- | --- | --- | --- | --- | --- | --- | --- | --- | --- | --- | --- | --- | --- | --- | --- | --- | --- | --- | --- | --- | --- | --- | --- | --- | --- | --- | --- | --- | --- | --- | --- | --- |
| CCc1nc2c(C)nc(C)cc2n1-c1ccc(CCNC(=O)NS(=O)(=O)c2ccc(C)cc2)cc1 [grapiprant] | 0 | 0 | 0 | 0 | 0 | > 10 | > 10 | > 10 | > 10 | > 10 | 103 | 101 | 104 | 99.2 | 97.6 | 101 | 97.7 | 97.3 | 95.6 | 96.6 | 102 | 89.9 | 103 | 96.1 | 104 | 98 | 96.3 | 97.7 | 99.3 | 96.8 | 101 | 90.4 | 101 | 102 | 93.8 |
| CN(C)CCc1ccc(O)cc1 [hordenine] | 0 | 0 | 0 | 0 | 0 | > 10 | > 10 | > 10 | > 10 | > 10 | 104 | 110 | 103 | 87.1 | 100 | 106 | 103 | 101 | 99.1 | 103 | 91.9 | 93.6 | 89.7 | 101 | 101 | 94.6 | 96.1 | 92.7 | 102 | 97.8 | 96.2 | 102 | 100 | 102 | 95.8 |
| Cc1cc(/C=C2\SC(=O)N(c3ccccc3)C2=O)c(C)n1-c1cccnc1 [iCRT-14] | 1.4 | 0 | 0 | 0 | 0.1 | > 10 | > 10 | > 10 | > 10 | > 10 | 96.7 | 102 | 93.4 | 94.3 | 76.2 | 105 | 102 | 96.8 | 99.8 | 89.8 | 101 | 88.7 | 100 | 104 | 107 | 97 | 96.8 | 102 | 95.7 | 96.4 | 107 | 107 | 102 | 96.8 | 89 |
| N=C(N)NCCC[C@@H](N)C(=O)N[C@@H](CCCNC(=N)N)C(=O)N1CCC[C@H]1C(=O)N1C[C@H](O)C[C@H]1C(=O)NCC(=O)N[C@@H](Cc1cccs1)C(=O)N[C@@H](CO)C(=O)N1Cc2ccccc2C[C@@H]1C(=O)N1[C@H](C(=O)N[C@@H](CCCNC(=N)N)C(=O)O)C[C@@H]2CCCC[C@@H]21 [icatibant-acetate] | 0 | 0 | 0 | 0 | 0 | > 10 | > 10 | > 10 | > 10 | > 10 | 91 | 93.3 | 84.7 | 102 | 102 | 99 | 97.9 | 101 | 101 | 101 | 107 | 92.8 | 98 | 98.6 | 104 | 102 | 98.8 | 103 | 98.1 | 101 | 96 | 100 | 90 | 91.4 | 103 |
| C[C@@]12CC[C@@H]3[C@@](CC[C@H]4[C@@]3(C)CCC[C@@]4(C)C(=O)O)(CC1=O)C2 [isosteviol] | 0 | 0 | 0 | 0 | 0 | > 10 | > 10 | > 10 | > 10 | > 10 | 94.4 | 91.4 | 100 | 99.5 | 107 | 97.8 | 99.6 | 98.5 | 97.5 | 106 | 103 | 105 | 112 | 110 | 94.5 | 101 | 101 | 96.8 | 96.5 | 98.1 | 87.5 | 99.9 | 89.2 | 95.2 | 109 |
| N#CCCCSC(=N)N [kevetrin] | 0 | 0 | 0 | 0 | 0 | > 10 | > 10 | > 10 | > 10 | > 10 | 107 | 97.4 | 101 | 93.6 | 101 | 96.6 | 98.4 | 92.6 | 101 | 98.9 | 108 | 90.9 | 92.8 | 105 | 93.1 | 97.9 | 102 | 96.3 | 97.5 | 96.3 | 92 | 99.3 | 96.6 | 99.8 | 99.7 |
| CC(=O)O[C@H]1C[C@H](O[C@H]2[C@@H](O)C[C@H](O[C@H]3[C@@H](O)C[C@H](O[C@H]4CC[C@@]5(C)[C@H](CC[C@@H]6[C@@H]5C[C@@H](O)[C@]5(C)[C@@H](C7=CC(=O)OC7)CC[C@]65O)C4)O[C@@H]3C)O[C@@H]2C)O[C@H](C)[C@H]1O[C@@H]1O[C@H](CO)[C@@H](O)[C@H](O)[C@H]1O [lanatoside-C] | 15 | 27.8 | 15.2 | 19.5 | 19.5 | 0.396 | 0.0458 | 0.248 | 0.211 | 0.116 | 99.4 | 97.7 | 83.3 | 30.9 | 5.9 | 92.5 | 92 | 23.4 | 0.8 | 0.9 | 107 | 95.1 | 80.7 | 30.6 | 18.7 | 101 | 97.3 | 87.4 | 3.4 | 6.7 | 102 | 99 | 66.4 | 17.6 | 18.4 |
| CC1(C)OC[C@@H](COC(=O)CCc2ccc(OC[C@@H](O)CNCCNC(=O)N3CCOCC3)cc2)O1 [landiolol] | 0 | 0 | 0 | 0 | 0 | > 10 | > 10 | > 10 | > 10 | > 10 | 81.9 | 106 | 104 | 86.3 | 96.8 | 96.2 | 97.4 | 93.4 | 94.6 | 96.6 | 105 | 97.7 | 97.2 | 104 | 101 | 98.4 | 99.2 | 96.9 | 101 | 97.1 | 111 | 103 | 98.2 | 108 | 107 |
| CC1(C)Cc2c(-c3ccccc3)c(-c3ccc(Cl)cc3)c(CC(=O)O)n2C1 [licofelone] | 0 | 0 | 0 | 0 | 0.1 | > 10 | > 10 | > 10 | > 10 | > 10 | 110 | 102 | 95.4 | 101 | 93.1 | 102 | 102 | 102 | 107 | 99.5 | 104 | 101 | 100 | 96 | 95 | 101 | 101 | 97.5 | 102 | 90.9 | 94.8 | 94.9 | 87.5 | 96.9 | 85.3 |
| Clc1cccc(N2CCNCC2)c1 [mCPP] | 0 | 0 | 0 | 0 | 0 | > 10 | > 10 | > 10 | > 10 | > 10 | 97.7 | 95.3 | 96 | 100 | 105 | 88.9 | 103 | 96.7 | 100 | 106 | 91.4 | 102 | 104 | 104 | 100 | 99.8 | 93.3 | 103 | 97.1 | 93.9 | 88.9 | 97 | 96.1 | 92.4 | 98.4 |
| CN1CCCCC1CCN1c2ccccc2Sc2ccc([S+](C)[O-])cc21 (stereo not given) [mesoridazine] | 0 | 0 | 0 | 0 | 0 | > 10 | > 10 | > 10 | > 10 | > 10 | 108 | 93.2 | 120 | 106 | 111 | 93.2 | 96.7 | 91 | 90.1 | 96.5 | 101 | 108 | 97.7 | 105 | 120 | 95.3 | 101 | 96.7 | 97.5 | 101 | 93.4 | 93.9 | 90.5 | 97 | 110 |
